Experimental data reported in patent publication US10246469B2, “Biaryl kinase inhibitors” (BRISTOL-MYERS SQUIBB COMPANY, priority 2015, dated 2019).

molecular target: T1, GST-Xa-hAAK1 (Homo sapiens, UniProt Q2M2I8); test: AAK1 Kinase Assay; type: biochemical; conditions: bacterially expressed GST-Xa-hAAK1 3.5 nM; ATP 22 μM; fluoresceinated peptide 1.5 μM; 3 hours at room temperature; Caliper LabChip 3000
T1 construct: GST (N); Factor Xa cleavage site (Xa) (internal); made in house
How it was run: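 Bacterially expressed GST-Xa-hAAK1 (3.5 nM) phosphorylated 1.5 μM 5-FAM peptide with 22 μM ATP in Tris pH 7.4, MgCl2, DTT, 1.6% DMSO, 3 h at room temperature. EDTA-stopped; product separated electrophoretically on Caliper LabChip. IC50 from eleven concentrations by non-linear regression.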

T1 sequence (Q2M2I8 whole entry): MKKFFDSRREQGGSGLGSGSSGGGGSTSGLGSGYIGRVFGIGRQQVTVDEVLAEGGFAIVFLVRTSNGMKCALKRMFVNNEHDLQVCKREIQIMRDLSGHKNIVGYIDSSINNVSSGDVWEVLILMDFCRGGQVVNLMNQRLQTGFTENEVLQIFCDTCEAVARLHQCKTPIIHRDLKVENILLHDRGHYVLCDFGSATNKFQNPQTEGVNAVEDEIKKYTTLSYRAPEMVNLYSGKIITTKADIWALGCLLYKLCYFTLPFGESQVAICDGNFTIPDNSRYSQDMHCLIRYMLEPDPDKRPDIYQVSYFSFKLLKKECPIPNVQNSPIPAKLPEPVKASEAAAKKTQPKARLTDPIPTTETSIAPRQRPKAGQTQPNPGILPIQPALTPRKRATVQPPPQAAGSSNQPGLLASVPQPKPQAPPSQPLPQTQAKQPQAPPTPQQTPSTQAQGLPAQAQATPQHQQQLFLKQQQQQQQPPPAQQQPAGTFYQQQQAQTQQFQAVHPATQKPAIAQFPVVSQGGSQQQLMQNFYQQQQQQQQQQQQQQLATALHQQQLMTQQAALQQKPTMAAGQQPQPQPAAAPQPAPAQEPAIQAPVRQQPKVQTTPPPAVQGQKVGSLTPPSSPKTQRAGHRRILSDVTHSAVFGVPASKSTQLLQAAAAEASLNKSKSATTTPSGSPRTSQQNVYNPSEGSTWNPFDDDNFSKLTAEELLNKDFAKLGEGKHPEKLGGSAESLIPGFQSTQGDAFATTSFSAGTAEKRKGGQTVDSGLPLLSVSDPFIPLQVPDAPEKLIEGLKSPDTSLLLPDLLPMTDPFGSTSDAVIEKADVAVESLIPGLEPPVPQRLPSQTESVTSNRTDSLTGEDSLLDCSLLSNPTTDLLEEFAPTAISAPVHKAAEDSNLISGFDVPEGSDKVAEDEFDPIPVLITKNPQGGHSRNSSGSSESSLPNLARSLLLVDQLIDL

IC50	SMILES
6.3 nM	CC(C)C[C@](C)(N)COc1ccc(-c2ncnc3cc(F)c(F)cc23)cc1C(F)(F)F [Example 471, (S)-1-(4-(6,7-difluoroquinazolin-4-yl)-2-(trifluoromethyl)phenoxy)-2,4-dimethylpentan-2-amine]
0.5 nM	Cc1cc(C(=O)Nc2cc(-c3ccc(OC[C@@](C)(N)CC(C)C)c(C(F)(F)F)c3)ccn2)no1 [Example 408, (S)—N-(4-(4-((2-amino-2,4-dimethylpentyl)oxy)-3-(trifluoromethyl)phenyl)pyridin-2-yl)-5-methylisoxazole-3-carboxamide]
54 nM	CC(C)C[C@](C)(N)COc1ccc(-c2ccnc(NC3CCOCC3)c2)cc1C#N [Example 468, (S)-2-(2-amino-2,4-dimethylpentyloxy)-5-(2-(tetrahydro-2H-pyran-4-ylamino)pyridin-4yl)benzonitrile]
1.4 nM	CC(C)C[C@](C)(N)COc1ccc(-c2ccnc3c2C(=O)NC3)cc1C(F)(F)F [Example 425, (S)-4-(4-((2-amino-2,4-dimethylpentyl)oxy)-3-(trifluoromethyl)phenyl)-6,7-dihydro-5H-pyrrolo [3,4-b]pyridin-5-one]
0.8 nM	CC(C)C[C@](C)(N)COc1ccc(-c2ccnc(NC(=O)C3=NNC(=O)CC3)c2)cc1C(F)(F)F [Example 407, (S)—N-(4-(4-((2-amino-2,4-dimethylpentyl)oxy)-3-(trifluoromethyl)phenyl)pyridin-2-yl)-6-oxo-1,4,5,6-tetrahydropyridazine-3-carboxamide]
391 nM	CC(C)C[C@](C)(N)COc1ccc(-c2cc(N)nc3ccnn23)c(F)c1 [Example 455, (S)-7-(4-((2-amino-2,4-dimethylpentyl)oxy)-2-fluorophenyl)pyrazolo[1,5-a]pyrimidin-5-amine]
495 nM	Cc1cc(-c2ccc(OC[C@@](C)(N)CC(C)C)c(C#N)c2)n2nc(C)cc2n1 [Example 464, (S)-2-((2-amino-2,4-dimethylpentyl)oxy)-5-(2,5-dimethylpyrazolo[1,5-a]pyrimidin-7-yl)benzonitrile]
144 nM	Cc1cc(-c2cnc3cccnn23)ccc1OC[C@@](C)(N)CC(C)C [Example 502, (S)-1-(4-(imidazo[1,2-b]pyridazin-3-yl)-2-methylphenoxy)-2,4-dimethylpentan-2-amine]
0.5 nM	Cc1cc(-c2ccnc3ccnn23)ccc1OC[C@@](C)(N)CC(C)C [Example 472, (S)-2,4-dimethyl-1-(2-methyl-4-(pyrazolo[1,5-a]pyrimidin-7-yl)phenoxy)pentan-2-amine]
0.6 nM	CC(C)C[C@](C)(N)COc1ccc(-c2ccnc(NC(=O)c3ccc(Br)o3)c2)cc1C(F)(F)F [Example 401, (S)—N-(4-(4-((2-amino-2,4-dimethylpentyl)oxy)-3-(trifluoromethyl)phenyl)pyridin-2-yl)-5-bromofuran-2-carboxamide]
0.3 nM	CC(C)C[C@](C)(N)COc1ccc(-c2ccnc(NC(=O)c3cnn[nH]3)c2)cc1C(F)(F)F [Example 406, (S)—N-(4-(4-((2-amino-2,4-dimethylpentyl)oxy)-3-(trifluoromethyl)phenyl)pyridin-2-yl)-1H-1,2,3-triazole-5-carboxamide]
3.6 nM	CC(C)C[C@](C)(N)COc1ccc(-c2ccnc3c2C(=O)NC3)cc1Cl [Example 417, (S)-4-(4-((2-amino-2,4-dimethylpentyl)oxy)-3-chlorophenyl)-6,7-dihydro-5H-pyrrolo[3,4-b]pyridin-5-one]
1270 nM	Cc1cc(-c2ccc(OC[C@@](C)(N)CC(C)C)c(Cl)c2)n2nc(C)cc2n1 [Example 459, (S)-1-(2-chloro-4-(2,5-dimethylpyrazolo[1,5-a]pyrimidin-7-yl)phenoxy)-2,4-dimethylpentan-2-amine]
52 nM	Cc1nc(-c2ccc(OC[C@@](C)(N)CC(C)C)c(C(F)(F)F)c2)c2ccsc2n1 [Example 481, (S)-2,4-dimethyl-1-(4-(2-methylthieno[2,3-d]pyrimidin-4-yl)-2-(trifluoromethyl)phenoxy)pentan-2-amine]
94 nM	CC(C)C[C@](C)(N)COc1ccc(-c2ccnc3c2C(=O)NC3)cc1F [Example 416, (S)-4-(4-((2-amino-2,4-dimethylpentyl)oxy)-3-fluorophenyl)-6,7-dihydro-5H-pyrrolo[3,4-b]pyridin-5-one]
11 nM	Cc1nc(-c2cnn3cc(C#N)cnc23)ccc1OC[C@@](C)(N)CC(C)C [Example 478, (S)-3-(5-((2-amino-2,4-dimethylpentyl)oxy)-6-methylpyridin-2-yl)pyrazolo[1,5-a]pyrimidine-6-carbonitrile]
184 nM	CC(=O)Nc1cc(-c2ccc(OC[C@@](C)(N)CC(C)C)c(F)c2)n2nccc2n1 [Example 463, (S)—N-(7-(4-((2-amino-2,4-dimethylpentyl)oxy)-3-fluorophenyl)pyrazolo [1,5-a]pyrimidin-5-yl) acetamide]

The next lines start with the compound.

SMILES	IC50
Cc1nccc(-c2ccc(OCC(C)(C)N)c(C)n2)n1 [Example 321, 2-methyl-1-((2-methyl-6-(2-methylpyrimidin-4-yl)pyridin-3-yl)oxy)propan-2-amine]	162 nM
CC(C)C[C@](C)(N)COc1ccc(-c2ccnc(NC(=O)C3CC3)c2)cc1C(F)(F)F [Example 389, (S)—N-(4-(4-((2-amino-2,4-dimethylpentyl)oxy)-3-(trifluoromethyl)phenyl)pyridin-2-yl)cyclopropanecarboxamide]	0.3 nM
CC(C)C[C@](C)(N)COc1ncc(-c2ccnc3ccnn23)cc1Cl [Example 272, (S)-1-((3-chloro-5-(pyrazolo[1,5-a]pyrimidin-7-yl)pyridin-2-yl)oxy)-2,4-dimethylpentan-2-amine]	0.8 nM
Cc1cc(-c2cnn3cccnc23)ccc1OC[C@@](C)(N)CC(C)C [Example 333]	99 nM
Cc1n[nH]c(C)c1-c1ccc(OC[C@@](C)(N)CC(C)C)c(F)c1 [Example 251, (S)-1-(4-(3,5-dimethyl-1H-pyrazol-4-yl)-2-fluorophenoxy)-2,4-dimethylpentan-2-amine]	310 nM
CC(C)C[C@](C)(N)COc1ccc(-c2cnn3cccnc23)cc1Cl [Example 332]	94 nM
Cc1nc2c(-c3ccc(OC[C@@](C)(N)CC(C)C)c(C(F)(F)F)c3)ncnc2s1 [Example 270, (S)-2,4-dimethyl-1-(4-(2-methylthiazolo[5,4-d]pyrimidin-7-yl)-2-(trifluoromethyl)phenoxy)pentan-2-amine]	8.4 nM
CC(C)C[C@](C)(N)COc1ccc(-c2ccnc3[nH]ncc23)cc1F [Example 288, (S)-1-(2-fluoro-4-(1H-pyrazolo[3,4-b]pyridin-4-yl)phenoxy)-2,4-dimethylpentan-2-amine]	0.9 nM
CC(C)C[C@](C)(N)COc1ccc(-c2ccnn3ccnc23)cc1 [Example 281, (S)-1-(4-(imidazo[1,2-b]pyridazin-8-yl)phenoxy)-2,4-dimethylpentan-2-amine]	3.4 nM
CC(C)C[C@](C)(N)COc1ccc(-c2ccnc3ccnn23)cc1C(F)F [Example 351, (S)-1-(2-(difluoromethyl)-4-(pyrazolo[1,5-a]pyrimidin-7-yl)phenoxy)-2,4-dimethylpentan-2-amine]	0.4 nM
CC(C)C[C@](C)(N)COc1ccc(-c2ccnc3c2cnn3C)cc1F [Example 289, (5)-1-(2-fluoro-4-(1-methyl-1H-pyrazolo[3,4-b]pyridin-4-yl)phenoxy)-2,4-dimethylpentan-2-amine]	58 nM
Cc1cc(-c2ccnc3cc(C4CC4)nn23)cnc1OC[C@](C)(N)CC(C)C [Example 266, (R)-1-((5-(2-cyclopropylpyrazolo[1,5-a]pyrimidin-7-yl)-3-methylpyridin-2-yl)oxy)-2,4-dimethylpentan-2-amine]	265 nM
Cc1csc(Nc2nccc(-c3ccc(OC[C@@](C)(N)CC(C)C)c(C)c3)n2)n1 [Example 381, (S)—N-(4-(4-((2-amino-2,4-dimethylpentyl)oxy)-3-methylphenyl)pyrimidin-2-yl)-4-methylthiazol-2-amine]	1.5 nM
Cc1cc(-c2ccnc(NC3CC3)n2)ccc1OC[C@@](C)(N)CC(C)C [Example 369, (S)-4-(4-((2-amino-2,4-dimethylpentyl)oxy)-3-methylphenyl)-N-cyclopropylpyrimidin-2-amine]	1.7 nM
CC(C)C[C@](C)(N)COc1ccc(-c2ccnc(Nc3nccs3)c2)cc1Cl [Example 257, (S)—N-(4-(4-((2-amino-2,4-dimethylpentyl)oxy)-3-chlorophenyl)pyridin-2-yl)thiazol-2-amine]	0.45 nM
CC(C)C[C@](C)(N)COc1ccc(-c2ccnc3ccnn23)cc1CF [Example 353, (S)-1-(2-(fluoromethyl)-4-(pyrazolo[1,5-a]pyrimidin-7-yl)phenoxy)-2,4-dimethylpentan-2-amine]	0.2 nM
CC(C)C[C@](C)(N)COc1ccc(-c2ccnc(NC(=O)CC3CCCCCC3)c2)cc1C(F)(F)F [Example 399, (S)—N-(4-(4-((2-amino-2,4-dimethylpentyl)oxy)-3-(trifluoromethyl)phenyl)pyridin-2-yl)-2-cycloheptylacetamide]	5.9 nM
Cc1cc(-c2ccnc3[nH]c(N)nc23)ccc1OC[C@@](C)(N)CC(C)C [Example 259, (S)-7-(4-((2-amino-2,4-dimethylpentyl)oxy)-3-methylphenyl)-3H-imidazo[4,5-b]pyridin-2-amine]	229 nM
Cc1csc(Nc2nccc(-c3ccc(OC[C@@](C)(N)CC(C)C)c(C(F)(F)F)c3)n2)n1 [Example 376, (S)—N-(4-(4-((2-amino-2,4-dimethylpentyl)oxy)-3-(trifluoromethyl)phenyl)pyrimidin-2-yl)-4-methylthiazol-2-amine]	0.8 nM
CC(C)C[C@](C)(N)COc1ccc(-c2ccnc(NC(=O)CCC3CCCC3)c2)cc1C(F)(F)F [Example 393, (S)—N-(4-(4-((2-amino-2,4-dimethylpentyl)oxy)-3-(trifluoromethyl)phenyl)pyridin-2-yl)-3-cyclopentylpropanamide]	7.3 nM
